Test results as given in patent publication US5659038A, “5-vinyl-and 5-ethinyl-quinolone- and -naphthyridone-carboxylic acids” (Bayer Aktiengesellschaft, priority 1994, dated 1997).
Converted amounts (≈) assume the structure as drawn. Where a name gives a salt, the structure may show the parent alone. Read-outs that look alike come from different tables or passages of the source.

Tests used:
Assay type in all cases: cell-based
Enterobater aer.ICB 5240 = assay: MIC, serial agar dilution
Experimental: (§1) The minimum inhibitory concentrations (MICs) were determined in serial dilution tests using Iso-Sensitest Agar (Oxoid). For each test substance, a series of agar plates was prepared which contained concentrations of the active compound which decreased as a result of dilution to twice the volume each time. The agar plates were inoculated using a Multipoint Inoculator (Denley). For inoculation, overnight cultures of the pathogens were used which had previously been diluted to such a concentration that each inoculation point contained approximately 10^4 colony-forming particles. The inoculated agar plates were incubated at 37° C., and the microbial growth was determined after approximately 20 hours. The MIC value (μg/ml) indicates the lowest concentration of active compound at which no growth was discernible with the naked eye.

[1] = test system: Enterobater cloaceae 2427; assay: MIC, serial agar dilution
Experimental: as §1

[2] = test system: Enterococcus faecalis 27101; assay: MIC, serial agar dilution
Experimental: as §1

[3] = test system: Staphylococcus aureus ICB 25701; assay: MIC, serial agar dilution
Experimental: as §1

[4] = test system: Staphylococcus aureus ATTC 29213; assay: MIC, serial agar dilution
Experimental: as §1

E. coli Neumann = assay: MIC, serial agar dilution; conditions: Escherichia coli
Experimental: as §1

[5] = test system: Enterococcus faecalis 9790; assay: MIC, serial agar dilution
Experimental: as §1

[6] = test system: Staphylococcus aureus 133; assay: MIC, serial agar dilution
Experimental: as §1

Staph. Z433-4 LH = assay: MIC, veterinary microorganisms; conditions: 20 h
Experimental: as §1
(§2) Table 3 lists MIC values of compounds according to the invention against microorganisms which aye specific to veterinary medicine. The comparison compound shown in this case is enrofloxacin (ENRO), which is a therapeutic used in veterinary medicine.

Staph. Ky 469 We = assay: MIC, veterinary microorganisms; conditions: 20 h
Experimental: as §1, §2

Staph. Z 318 Lh = assay: MIC, veterinary microorganisms; conditions: 20 h
Experimental: as §1, §2

E. coli G293 Lh = assay: MIC, veterinary microorganisms; conditions: Escherichia coli, G293LH, 20 h
Experimental: as §1, §2

E. coli 21 Bui = assay: MIC, veterinary microorganisms; conditions: Escherichia coli, 20 h
Experimental: as §1, §2

[7] = Enterobater cloaceae 2427, Iso-Sensitest Agar, 37° C., approximately 20 hours, read-out: MIC
[8] = Enterococcus faecalis 27101, Iso-Sensitest Agar, 37° C., approximately 20 hours, read-out: MIC
[9] = ICB25701, Staphylococcus aureus ICB 25701, Iso-Sensitest Agar, 37° C., approximately 20 hours, read-out: MIC
[10] = ATTC29213, Staphylococcus aureus ATTC 29213, Iso-Sensitest Agar, 37° C., approximately 20 hours, read-out: MIC
[11] = E. coli Neumann, Iso-Sensitest Agar, 37° C., approximately 20 hours, read-out: MIC
[12] = Enterococcus faecalis 9790, Iso-Sensitest Agar, 37° C., approximately 20 hours, read-out: MIC
[13] = Staphylococcus aureus 133, Iso-Sensitest Agar, 37° C., approximately 20 hours, read-out: MIC
[14] = Enterobater aer.ICB 5240, Iso-Sensitest Agar, 37° C., approximately 20 hours, read-out: MIC
[15] = Staphylococcus aureus, ATTC29213, 20 h
[16] = Staphylococcus aureus, ICB25701, 20 h

Row | MIC (Staph. Z433-4 LH) [µg/mL] | MIC (Staph. Ky 469 We) [µg/mL] | MIC (Staph. Z 318 Lh) [µg/mL] | MIC (E. coli G293 Lh) [µg/mL] | MIC (E. coli 21 Bui) [µg/mL] | Structure (SMILES) | MIC (Enterobater aer.ICB 5240; 20 h) [µg/mL] | MIC [1, 7] [µg/mL] | MIC [2, 8] [µg/mL] | MIC [3, 9] [µg/mL] | MIC [4, 10] [µg/mL] | MIC (E. coli Neumann; [11]) [µg/mL] | MIC [5, 12] [µg/mL] | MIC [6, 13] [µg/mL] | MIC (Enterobater aer.ICB 5240; [14]) [µg/mL] | MIC [3, 16] [µg/mL] | further results
1 |  |  |  |  |  | C=Cc1c(F)c(N2CC3CC=CC(NC)C3C2)c(F)c2c1c(=O)c(C(=O)O)cn2C1CC1 (stereo not shown) [Compound 7, 7-(4-methylamino-1,3,3a,4,7,7a-hexahydro-isoindol-2-yl)-1-cyclopropyl-6,8-difluoro-1,4-dihydro-4-oxo-5-vinyl-3-quinolinecarboxylic acid] | 8 (≈ 18.1 µM) | 0.125 (≈ 0.283 µM) | 0.03 (≈ 0.068 µM) | 0.03 (≈ 0.068 µM) | ≤ 0.015 | 0.03 (≈ 0.068 µM) | 0.03 (≈ 0.068 µM) | ≤ 0.015 |  |  | 
2 | 0.015 (≈ 0.0351 µM) | 0.015 (≈ 0.0351 µM) | 0.06 (≈ 0.14 µM) | 8 (≈ 18.7 µM) | 4 (≈ 9.36 µM) | C=Cc1c(F)c(N2CC3CC=CC(N)C3C2)c(F)c2c1c(=O)c(C(=O)O)cn2C1CC1 (stereo not shown) [Compound 6, 7-(4-amino-1,3,3a,4,7,7a-hexahydro-isoindol-2-yl)-1-cyclopropyl-6,8-difluoro-1,4-dihydro-4-oxo-5-vinyl-3-quinolinecarboxylic acid] |  | 0.125 (≈ 0.292 µM) | 0.03 (≈ 0.0702 µM) | 0.03 (≈ 0.0702 µM) | ≤ 0.015 | 0.015 (≈ 0.0351 µM) | 0.03 (≈ 0.0702 µM) | ≤ 0.015 | 4 (≈ 9.36 µM) |  | 
3 |  |  |  |  |  | CCc1c(F)c(N2CCN(C)CC2)c(F)c2c1c(=O)c(C(=O)O)cn2C1CC1 [Compound K, 1-cyclopropyl-5-ethyl-6,8-difluoro-1,4-dihydro-7-(4-methyl-1-piperazinyl)-4-oxo-3-quinolinecarboxylic acid, reference compound] |  |  | 64 (≈ 164 µM) | 64 (≈ 164 µM) |  |  | 64 (≈ 164 µM) | 16 (≈ 40.9 µM) | ≤ 128 |  | MIC ([1]; 20 h): 1 µg/mL (≈ 2.55 µM); MIC [4, 15]: 8 µg/mL (≈ 20.4 µM); MIC (E. coli Neumann; 20 h): 0.25 µg/mL (≈ 0.639 µM)
4 | 0.03 | 0.03 | 2 | 32 | 16 | C=Cc1c(F)c(N2CCC(N)C2)c(F)c2c1c(=O)c(C(=O)O)cn2C1CC1.Cl (stereo not shown) [Compound 5, 7-(3-aminopyrrolidin-1-yl)-1-cyclopropyl-6,8-difluoro-1,4-dihydro-4-oxo-5-vinyl-3-quinolinecarboxylic acid hydrochloride] |  | ≤ 0.015 | 0.06 | 2 | ≤ 0.015 | ≤ 0.015 | 0.125 | 0.03 | 4 |  | 
5 |  |  |  |  |  | C=Cc1c(F)c(N2CCN(C)CC2)c(F)c2c1c(=O)c(C(=O)O)cn2C1CC1 [Compound 1, 1-cyclopropyl-6,8-difluoro-1,4-dihydro-4-oxo-7-(4-methyl-1-piperazinyl)-4-oxo-5-vinyl-3-quinolinecarboxylic acid] | 32 (≈ 82.2 µM) |  |  | 64 (≈ 164 µM) |  | 0.06 (≈ 0.154 µM) |  |  |  |  | MIC ([1]; 20 h): 0.25 µg/mL (≈ 0.642 µM); MIC ([2]; Enterococcus faecalis, 27101, 20 h): 1 µg/mL (≈ 2.57 µM); MIC [4, 15]: 0.25 µg/mL (≈ 0.642 µM); MIC ([5]; Enterococcus faecalis, 9790, 20 h): 1 µg/mL (≈ 2.57 µM); MIC ([6]; Staphylococcus aureus, 133, 20 h): 0.25 µg/mL (≈ 0.642 µM)
6 | 0.25 (≈ 0.696 µM) | 0.12 (≈ 0.334 µM) | 8 (≈ 22.3 µM) | 32 (≈ 89 µM) | 32 (≈ 89 µM) | CCN1CCN(c2cc3c(cc2F)c(=O)c(C(=O)O)cn3C2CC2)CC1 [ENRO, enrofloxacin, reference compound] |  |  |  |  |  |  |  |  |  |  | 
7 |  |  |  |  |  | C=Cc1c(F)c(N2C[C@@H]3CCCN[C@@H]3C2)c(F)c2c1c(=O)c(C(=O)O)cn2C1CC1 [Compound 3, 1-cyclopropyl-7-(S,S-2,8-diazabicyclo[4.3.0]non-8-yl)-6,8-difluoro-1,4-dihydro-4-oxo-5-vinyl-3-quinolinecarboxylic acid] | 8 (≈ 19.3 µM) | 0.06 (≈ 0.144 µM) | 0.125 (≈ 0.301 µM) |  | 0.03 (≈ 0.0722 µM) | ≤ 0.015 | 0.125 (≈ 0.301 µM) | 0.03 (≈ 0.0722 µM) |  | 0.5 (≈ 1.2 µM) | 
8 |  |  |  |  |  | C=Cc1c(F)c(N2CC3CCOC3(CN)C2)c(F)c2c1c(=O)c(C(=O)O)cn2C1CC1 (stereo not shown) [Compound 11, 7-(6a-aminomethylhexahydro-furo[2,3-c]pyrrol-5-yl)-1-cyclopropyl-6,8-difluoro-1,4-dihydro-4-oxo-5-vinyl-3-quinolinecarboxyllc acid hydrochloride] | 32 | 0.125 | 0.125 |  | 0.015 | 0.03 | 0.125 | 0.015 |  | 0.5 | 
9 |  |  |  |  |  | C=Cc1c(F)c(N2C[C@@H]3CCCN[C@@H]3C2)c(F)c2c1c(=O)c(C(=O)O)cn2C1CC1 (relative stereo) [Compound 2, 1-cyclopropyl-7-(cis-2,8-diazabicyclo[4.3.0]non-8-yl)-6,8-difluoro-1,4-dihydro-4-oxo-5-vinyl-3-quinolinecarboxylic acid] |  | 0.125 (≈ 0.301 µM) | 0.125 (≈ 0.301 µM) |  | 0.06 (≈ 0.144 µM) | 0.06 (≈ 0.144 µM) | 0.125 (≈ 0.301 µM) | 0.06 (≈ 0.144 µM) | 16 (≈ 38.5 µM) | 1 (≈ 2.41 µM) | 
